Source: ChEMBL document CHEMBL1140451, “Inhibitory effect of synthetic C-C biflavones on various phospholipase A(2)s activity” (Bioorg Med Chem, 2007)

Assays:
Format in all cases: cell-based
[1] = Inhibition of human cloned sPLA2-5 expressed in HEK293 cells
[2] = molecular target: T1, Group 10 secretory phospholipase A2 (Homo sapiens, UniProt O15496); assay: Inhibition of human cloned sPLA2-10 expressed in HEK293 cells
T1 sequence (O15496 whole entry): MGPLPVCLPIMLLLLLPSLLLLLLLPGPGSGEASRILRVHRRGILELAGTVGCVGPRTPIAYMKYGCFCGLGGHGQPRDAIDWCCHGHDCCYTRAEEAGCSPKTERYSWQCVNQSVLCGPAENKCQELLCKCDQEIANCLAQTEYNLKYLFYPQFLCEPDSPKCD

Phospholipase A2 = Phospholipase A2 (Rattus norvegicus, UniProt P04055); assay: Inhibition of rat cloned sPLA2-1B expressed in HEK293 cells
Sequence of Phospholipase A2 (P04055 whole entry): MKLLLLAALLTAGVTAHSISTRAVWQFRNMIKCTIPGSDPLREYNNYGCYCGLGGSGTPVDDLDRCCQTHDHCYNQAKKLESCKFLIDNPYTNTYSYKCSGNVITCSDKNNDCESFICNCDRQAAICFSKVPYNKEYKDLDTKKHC

[3] = molecular target: T2, Cytosolic phospholipase A2 (Homo sapiens, UniProt P47712); assay: Inhibition of human cloned cPLA2 expressed in HEK293 cells
T2 sequence (P47712 whole entry): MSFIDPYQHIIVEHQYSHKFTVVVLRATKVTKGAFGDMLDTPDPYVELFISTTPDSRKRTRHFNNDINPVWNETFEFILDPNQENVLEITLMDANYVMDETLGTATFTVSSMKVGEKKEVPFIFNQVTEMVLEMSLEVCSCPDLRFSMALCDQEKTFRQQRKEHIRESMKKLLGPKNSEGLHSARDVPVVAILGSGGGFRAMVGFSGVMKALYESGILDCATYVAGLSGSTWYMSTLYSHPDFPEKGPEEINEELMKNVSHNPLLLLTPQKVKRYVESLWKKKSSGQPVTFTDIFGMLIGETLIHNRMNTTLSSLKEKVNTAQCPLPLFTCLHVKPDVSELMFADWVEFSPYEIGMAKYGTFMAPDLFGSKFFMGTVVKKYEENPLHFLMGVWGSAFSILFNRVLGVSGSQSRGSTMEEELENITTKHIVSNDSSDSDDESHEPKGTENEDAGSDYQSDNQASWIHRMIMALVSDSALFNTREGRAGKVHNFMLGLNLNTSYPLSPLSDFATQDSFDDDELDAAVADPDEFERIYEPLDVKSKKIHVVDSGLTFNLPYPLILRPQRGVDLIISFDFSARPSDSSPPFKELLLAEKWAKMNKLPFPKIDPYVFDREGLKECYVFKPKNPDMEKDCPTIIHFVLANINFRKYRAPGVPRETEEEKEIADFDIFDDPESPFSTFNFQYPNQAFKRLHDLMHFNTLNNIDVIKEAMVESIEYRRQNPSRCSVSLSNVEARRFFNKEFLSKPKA

Structure (SMILES) | IC50 [1] [µM] | IC50 [2] [µM] | IC50 (Phospholipase A2) [µM] | IC50 [3] [µM]
O=c1cc(-c2ccc(-c3cccc(-c4cc(=O)c5ccccc5o4)c3)cc2)oc2ccccc12 | 23.9 | > 100 | > 100 | 38.7
O=c1cc(-c2ccc(O)c(-c3c(O)cc(O)c4c(=O)cc(-c5ccc(O)cc5)oc34)c2)oc2cc(O)cc(O)c12 [AMENTOFLAVONE] | 41.8 | > 100 | > 100 | > 100
O=c1cc(-c2ccccc2)oc2ccc(-c3ccc4oc(-c5ccccc5)cc(=O)c4c3)cc12 | 50 | > 100 | > 100 | 48.1

Molecules with a lower IC50 [1], results first:

IC50 [1] [µM] | IC50 [2] [µM] | IC50 (Phospholipase A2) [µM] | IC50 [3] [µM] | Structure (SMILES)
17.6 | > 100 | > 100 | > 100 | O=c1cc(-c2ccc(Oc3cc(-c4cc(=O)c5c(O)cc(O)cc5o4)ccc3O)cc2)oc2cc(O)cc(O)c12 [OCHNAFLAVONE]
12.8 | 27.6 | > 100 | 16.8 | O=c1cc(-c2cccc(-c3ccc4oc(-c5ccccc5)cc(=O)c4c3)c2)oc2ccccc12
10.8 | > 100 | > 100 | 11.9 | O=c1cc(-c2ccc(-c3ccc4oc(-c5ccccc5)cc(=O)c4c3)cc2)oc2ccccc12
8.7 | > 100 | > 100 | 6 | O=c1cc(-c2ccc(-c3ccc(-c4cc(=O)c5ccccc5o4)cc3)cc2)oc2ccccc12
6.5 | > 100 | > 100 | 8.42 | O=c1cc(-c2ccc(-c3c(-c4ccccc4)oc4ccccc4c3=O)cc2)oc2ccccc12
